Measured values from paper PMC11057469, “Quantitative cross-species comparison of serum albumin binding of per- and polyfluoroalkyl substances from five structural classes” (Toxicological Sciences, 2024).
Read-outs that look alike come from different tables or passages of the source.

How the values were obtained:
[1] = set-up: method as in Numata et al., 2014; conditions: elimination half-life in serum/plasma, Pig; ref Numata et al., 2014; cited from earlier work
[2] = elimination half-life in serum/plasma, Human, cited from earlier work
[3] = elimination half-life in serum/plasma, Rat, cited from earlier work
[4] = set-up: method as in Death et al., 2021; conditions: elimination half-life in serum/plasma, Cow; ref Death et al., 2021; cited from earlier work
Rat serum albumin (RSA) = Rat serum albumin (RSA) (Rattus norvegicus, UniProt P02770); test: in vitro; conditions: for ΔTm: rat, pH 7.4; for difference in binding affinity, RSA affinity greater than HSA: RSA compared with HSA, from DSF Kd
Protocol: (§1) Serum albumin stocks (1 mM) were prepared by reconstituting lyophilized stocks in HBS, with expected protein concentrations confirmed using the colorimetric Bio-Rad DC Protein Assay (Hercules, California).
(§2) A minimum of 2 independent plates were run for each protein-ligand combination, with 3 replicates per sample on each plate. Controls on each plate included a no protein control, matching vehicle control (no ligand), and 3 concentrations of OA (1, 2, 3 mM) and/or PFHxA (0.3, 1, 3 mM) as positive controls. The concentration of albumin that yielded maximal signal-to-noise ratio was optimized for each species. […] For concentration-response analyses, PFAS stock solutions were serially diluted into HBS.

[5] = molecular target: human serum albumin (HSA) (Homo sapiens, UniProt P02768); test: biochemical
Protocol: as §1, §2

[6] = molecular target: porcine serum albumin (PSA) (Sus scrofa, UniProt P08835); test: in vitro; conditions: for ΔTm: pig, pH 7.4
Protocol: as §1, §2

[7] = molecular target: Bovine serum albumin (BSA) (Bos taurus, UniProt P02769); test: in vitro; conditions: for ΔTm: bovine, pH 7.4; for difference in binding affinity, BSA affinity lower than HSA: BSA compared with HSA
Protocol: as §2

[8] = pig, after oral exposure; ref Fasano et al., 2006; Xie et al., 2020; cited from earlier work
[9] = rat, after oral exposure; ref Fasano et al., 2006; Xie et al., 2020; cited from earlier work
[10] = RSA, 1 = highest relative affinity, 4 = lowest
[11] = HSA, 1 = highest relative affinity, 4 = lowest
[12] = PSA compared with HSA, from DSF Kd
[13] = PSA, 1 = highest relative affinity, 4 = lowest
[14] = BSA, 1 = highest relative affinity, 4 = lowest

Rat serum albumin (RSA), sequence (P02770 25-608): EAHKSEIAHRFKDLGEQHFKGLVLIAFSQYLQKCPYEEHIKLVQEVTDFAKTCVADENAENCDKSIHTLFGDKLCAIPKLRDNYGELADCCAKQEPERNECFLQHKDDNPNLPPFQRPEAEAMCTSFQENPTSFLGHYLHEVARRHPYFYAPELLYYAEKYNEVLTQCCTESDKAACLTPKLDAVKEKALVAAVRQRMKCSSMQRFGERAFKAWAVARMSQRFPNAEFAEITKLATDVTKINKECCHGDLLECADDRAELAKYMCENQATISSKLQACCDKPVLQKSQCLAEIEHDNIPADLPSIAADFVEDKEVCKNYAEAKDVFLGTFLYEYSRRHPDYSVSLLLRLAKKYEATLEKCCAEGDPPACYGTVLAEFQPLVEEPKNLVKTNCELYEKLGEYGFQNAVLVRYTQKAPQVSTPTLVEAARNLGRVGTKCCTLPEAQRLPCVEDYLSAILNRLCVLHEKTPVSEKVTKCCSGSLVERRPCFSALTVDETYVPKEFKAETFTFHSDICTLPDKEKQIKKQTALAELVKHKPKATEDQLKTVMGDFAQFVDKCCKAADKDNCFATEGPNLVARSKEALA
human serum albumin (HSA), sequence (P02768 25-609): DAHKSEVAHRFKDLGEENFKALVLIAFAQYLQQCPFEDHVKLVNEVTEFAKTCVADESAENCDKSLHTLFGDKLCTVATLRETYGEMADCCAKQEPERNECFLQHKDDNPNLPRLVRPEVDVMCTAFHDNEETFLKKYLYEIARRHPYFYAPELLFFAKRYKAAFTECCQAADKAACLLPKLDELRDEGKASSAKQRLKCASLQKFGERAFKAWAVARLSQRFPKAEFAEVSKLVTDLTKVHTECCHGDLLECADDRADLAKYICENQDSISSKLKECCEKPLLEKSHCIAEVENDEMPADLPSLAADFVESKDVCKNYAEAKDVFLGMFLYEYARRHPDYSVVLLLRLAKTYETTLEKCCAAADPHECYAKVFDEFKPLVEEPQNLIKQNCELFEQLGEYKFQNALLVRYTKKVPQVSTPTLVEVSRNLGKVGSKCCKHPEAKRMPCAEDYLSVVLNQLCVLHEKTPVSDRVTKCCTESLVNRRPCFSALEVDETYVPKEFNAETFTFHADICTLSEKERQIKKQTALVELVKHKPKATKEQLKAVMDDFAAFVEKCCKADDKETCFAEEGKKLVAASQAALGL
porcine serum albumin (PSA), sequence (P08835 25-607): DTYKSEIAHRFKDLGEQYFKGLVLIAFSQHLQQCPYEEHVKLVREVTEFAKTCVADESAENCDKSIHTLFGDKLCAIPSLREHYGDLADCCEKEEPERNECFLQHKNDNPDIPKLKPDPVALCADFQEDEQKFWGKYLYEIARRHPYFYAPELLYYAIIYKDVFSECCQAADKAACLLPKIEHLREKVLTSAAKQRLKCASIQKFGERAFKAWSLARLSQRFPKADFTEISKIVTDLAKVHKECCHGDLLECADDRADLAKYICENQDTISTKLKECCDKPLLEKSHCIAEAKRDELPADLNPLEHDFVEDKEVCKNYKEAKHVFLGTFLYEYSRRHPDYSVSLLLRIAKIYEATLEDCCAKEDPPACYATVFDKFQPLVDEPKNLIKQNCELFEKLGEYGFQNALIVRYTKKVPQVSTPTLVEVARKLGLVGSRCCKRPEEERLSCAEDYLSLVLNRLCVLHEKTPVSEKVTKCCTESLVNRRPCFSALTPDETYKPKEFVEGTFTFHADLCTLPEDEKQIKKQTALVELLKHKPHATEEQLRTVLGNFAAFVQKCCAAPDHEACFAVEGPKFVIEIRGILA
Bovine serum albumin (BSA), sequence (P02769 25-607): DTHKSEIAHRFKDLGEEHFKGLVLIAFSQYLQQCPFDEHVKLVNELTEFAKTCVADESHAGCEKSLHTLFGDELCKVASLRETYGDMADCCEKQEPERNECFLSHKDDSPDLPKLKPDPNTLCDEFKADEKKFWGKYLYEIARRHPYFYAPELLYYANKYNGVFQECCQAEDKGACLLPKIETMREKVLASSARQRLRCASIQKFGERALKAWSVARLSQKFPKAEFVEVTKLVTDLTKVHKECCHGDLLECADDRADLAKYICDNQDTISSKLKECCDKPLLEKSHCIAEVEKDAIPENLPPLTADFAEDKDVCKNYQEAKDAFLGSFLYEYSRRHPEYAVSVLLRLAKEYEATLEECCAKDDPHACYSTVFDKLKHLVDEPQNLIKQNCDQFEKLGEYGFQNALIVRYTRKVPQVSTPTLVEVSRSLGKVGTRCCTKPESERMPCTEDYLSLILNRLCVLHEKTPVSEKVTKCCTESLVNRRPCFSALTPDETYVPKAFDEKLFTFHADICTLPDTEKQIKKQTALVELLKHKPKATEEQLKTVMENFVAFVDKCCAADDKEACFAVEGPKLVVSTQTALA

Compound	Half-life [1]	Half-life ([2]; ref Pizzurro et al., 2019)	Half-life ([3]; ref Pizzurro et al., 2019)	Kd [5] [mM]	Kd (Rat serum albumin (RSA)) [mM]	rank order of binding affinity among the four albumins (Rat serum albumin (RSA); [10])	rank order of binding affinity among the four albumins [5, 11]	Kd [6] [mM]	difference in binding affinity, PSA affinity greater than HSA [6, 12] [%]	rank order of binding affinity among the four albumins [6, 13]	Kd [7] [mM]	difference in binding affinity, BSA affinity lower than HSA ([7]; from DSF Kd) [%]	rank order of binding affinity among the four albumins [7, 14]	further results
O=S(=O)(O)C(F)(F)C(F)(F)C(F)(F)C(F)(F)C(F)(F)C(F)(F)C(F)(F)C(F)(F)F [PFOS, perfluorooctanesulfonic acid]	1.7 years^d	3.3–5.4 years^a	24–83 days^a	0.69	–	–	–	–	–	–	–	–	–	Half-life [4]: 39–120 days^c; binding affinity of 8-carbon congener greater than 4-carbon congener (Rat serum albumin (RSA)): 108.2%; rank order of binding affinity among the four albumins (Rat serum albumin (RSA)): 2; ΔTm (Rat serum albumin (RSA)): 4.76 °C; binding affinity of 8-carbon congener greater than 4-carbon congener [5]: 83.5%; rank order of binding affinity among the four albumins [5]: 3; Kd ([5]; human, pH 7.4): 0.62 mM; ΔTm ([5]; human, pH 7.4): 15.9 °C; binding affinity of 8-carbon congener greater than 4-carbon congener [6]: 106.7%; difference in binding affinity, PSA affinity greater than HSA [6]: 57.9%; rank order of binding affinity among the four albumins [6]: 1; ΔTm [6]: 5.74 °C; hill slope of the biphasic melt curve [7]: 3.5 ± 0.3; rank order of binding affinity among the four albumins [7]: 4; ΔTm [7]: 15.3 °C
O=C(O)C(F)(F)C(F)(F)C(F)(F)C(F)(F)C(F)(F)F [PFHxA, Perfluorohexanoic acid]	4.1 days^d	–	–	1.71	1.33	2	3	0.95	57.1	1	2.17	23.7	4	Half-life ([2]; ref Lau, 2015): 32 days^b; Half-life ([3]; ref Russell et al., 2013): 0.4–9.8 h^e
O=S(=O)(O)C(F)(F)C(F)(F)C(F)(F)C(F)(F)F [PFBS, perfluorobutanesulfonic acid]	43 days^d	25.8 days^a	0.6–7.4 h^a	1.68	1.41	3	4	1.25	29.4	2	–	–	1	difference in binding affinity, RSA affinity greater than HSA (Rat serum albumin (RSA)): 17.5%; difference in binding affinity, HSA affinity lower than BSA ([7]; HSA compared with BSA, from DSF Kd): 71.0%
OCCC(F)(F)C(F)(F)C(F)(F)C(F)(F)C(F)(F)C(F)(F)F [6:2 FTOH, 1H, 1H, 2H, 2H-perfluorooctanol]	–	–	–	–	–	–	–	–	–	–	–	–	–	ΔTm, maximum change in melting temperature (Rat serum albumin (RSA); RSA 0.18 mM, DSF, value (±SEM), N/A = nonbinding): no changes in albumin TM were detected; ΔTm, maximum change in melting temperature ([5]; HSA 0.13 mM, DSF, value (±SEM), N/A = nonbinding): no changes in albumin TM were detected; ΔTm, maximum change in melting temperature ([6]; PSA 0.11 mM, DSF, value (±SEM), N/A = nonbinding): no changes in albumin TM were detected; ΔTm, maximum change in melting temperature ([7]; BSA 0.18 mM, DSF, value (±SEM), N/A = nonbinding): no changes in albumin TM were detected
O=S(=O)(O)CCC(F)(F)C(F)(F)C(F)(F)C(F)(F)C(F)(F)C(F)(F)F [6:2 FTSA, 2H, 2H, 3H, 3H-perfluorooctane-1-sulfonate]	–	–	–	–	–	1	2	–	–	3	1.39	108.9	4	ΔTm (Rat serum albumin (RSA)): 7.99 °C; ΔTm ([5]; human, pH 7.4): 3.53 °C; ΔTm [6]: 8.72 °C; ΔTm [7]: 17.2 °C
O=C(O)C(F)(OC(F)(F)C(F)(F)C(F)(F)F)C(F)(F)F (centres unmarked) [HFPO-DA, hexafluoropropylene oxide-dimer acid]	–	–	–	1.57	1.64	2	1	2.12	–	3	2.55	47.6	4	difference in binding affinity, HSA affinity greater than PSA ([6]; HSA compared with PSA, from DSF Kd): 29.8%
O=C(O)C(F)(F)C(F)(F)C(F)(F)F [PFBA, Perfluorobutanoic acid]	–	3.1 days^a	1–9.2 h^a	2.64	1.9	2	3	1.28	69.4	1	3.06	–	4	–
O=C(O)C(F)(F)C(F)(F)C(F)(F)C(F)(F)C(F)(F)C(F)(F)C(F)(F)F [PFOA, perfluorooctanoic acid]	236 days^d	2.3–8.5 years^a	0.1–15 days^a	0.79	0.4	2	3	0.37	72.4	1	0.99	22.5	4	Half-life [4]: 0.8–1.3 days^c; difference in binding affinity, RSA affinity greater than HSA (Rat serum albumin (RSA)): 65.5%; binding affinity of 8-carbon congener greater than 4-carbon congener (Rat serum albumin (RSA); RSA, PFOA vs PFBA, PFOS vs PFBS): 130.4%; binding affinity of 8-carbon congener greater than 4-carbon congener ([5]; HSA, PFOA vs PFBA, PFOS vs PFBS): 107.9%; binding affinity of 8-carbon congener greater than 4-carbon congener ([6]; PSA, PFOA vs PFBA, PFOS vs PFBS): 110.3%; binding affinity of 8-carbon congener greater than 4-carbon congener ([7]; BSA, PFOA vs PFBA): 102.2%
OCCC(F)(F)C(F)(F)C(F)(F)C(F)(F)C(F)(F)C(F)(F)C(F)(F)C(F)(F)F [8:2 FTOH]	–	–	–	–	–	–	–	–	–	–	–	–	–	accumulation in tissues [8]: did not accumulate; accumulation in tissues [9]: did not accumulate
